Experimental data from patent US20060293228A1, “Therapeutic compositions and methods using transforming growth factor-beta mimics” (priority 2005, published 2006).
Where a SMILES comes first, the peptide text is derived from it. Where no end group is shown, it is not given here.

Key:
[1] = test system: insect bite; design: species or system human; conditions: in vivo
From the text: A person reported that they were very allergic to insect bites, which usually made a large red welt, then turned purple and looked like a severe bruise, lasting for about a week.

[2] = test system: contact dermatitis on both hands; design: species or system human; conditions: in vivo
From the text: A person had suffered from contact dermatitis on both hands for approximately 5 to 6 years. Signs of dermatitis, such as rash, itching, crustiness, thin skin (steroids) when flexed hand would start bleeding where lines, were apparent over approximately 100 cm^2 of the right and left hands, respectively (all of palm and fingers). The individual applied a lotion comprising cytomodulin (SEQ ID NO: 1) at a concentration of about approximately 0.01% once per day at night. The amount applied was about 0.25 ml per hand. After 3-4 days healing of the dermatitis was apparent. In approximately two weeks the dermatitis was completely healed.

[3] = test system: Mv-1-Lu mink lung epithelial cells; assay: Inhibition of DNA synthesis (3H-thymidine incorporation) of Mv-1-Lu mink lung epithelial cells; type: cell-based; conditions: cytomodulin at the same concentration
Description: The effect of TGF-β and cytomodulin were evaluated by determining the rate of [1H]thymidine incorporation into total acid-insoluble DNA and cell number. See generally, Sampath et al., J. Biol. Chem., 267, pp. 20352-20362 (1992). DNA synthesis rates were determined in triplicate cultures after 24 hour treatment with various concentrations (10^-9 M to 10^-6 M) of either TGF-β or cytomodulin (which was synthesized by the Merrifield method) by adding [methyl-3H]thymidine (2 uCi/ml, 80 Ci/mmol) for 6 hours before the termination of the culture. Incorporation was terminated by aspiration of the medium, and after washing three times with phosphate-buffered saline, the trichloroacetic acid (10%)-precipitated radioactive DNA was extracted with 1.0% (w/v) sodium dodecyl sulfate, 0.1 M NaOH and quantitated by liquid scintillation counting. For cell number determination, 1×10^5 cells were plated in flasks in MEM containing 10% FBS, and after 24 hours, the growth medium was replaced with serum-free medium containing various conceptions of TGF-β and cytomodulin. Triplicate cultures were harvested every 24 hours for the duration of 7 days, and the cell number was determined by counting cells released by trypsin digestion in a fixed volume hemacytometer.
The numbers shown at the various concentration are the ratio of the inhibition rate of the peptide being tested over the inhibition rate of cytomodulin (SEQ ID NO: 1) at the same concentration.

[4] = test system: NRK-49 F fibroblasts; assay: Growth and colony formation by NRK-49 F fibroblasts in soft agar; type: cell-based
Description: The original assay for TGF-β, the ability to promote anchorage independent growth of normal fibroblasts is still one of the hallmarks of TGF-β activity. NRK49 F fibroblasts were grown at 37° C. in DEM supplemented with 10% fetal calf serum. […] To this, either 100 nM TGF-β (positive control) or 100 nM cytomodulin was added. NRK49 F fibroblasts (5×10^4 cells/ml) were mixed with 0.3% agar were plated on the bottom of 35 mm culture dishes. Colony formation was observed starting on day 3 of culture.

negative effects of application of the lotion [2] | Molecule | adverse effects [1] | Inhib by new peptide/Inhib by cytomodulin (3H-thymidine incorporation) ([3]; 10 nM) | Inhib by new peptide/Inhib by cytomodulin (3H-thymidine incorporation) ([3]; 100 nM) | Inhib by new peptide/Inhib by cytomodulin (3H-thymidine incorporation) ([3]; 1 nM) | Inhib by new peptide/Inhib by cytomodulin (3H-thymidine incorporation) ([3]; 1000 nM) | growth and colony formation of NRK-49 F cells in soft agar (in words) [4]
No negative effects | CC(C)[C@H](NC(=O)[C@H](CC(N)=O)NC(=O)[C@H](C)N)C(=O)N[C@@H](C)C(=O)N[C@@H](CCC(=O)O)C(=O)N[C@@H](CC(N)=O)C(=O)N[C@@H](C)C(=O)O [cytomodulin, Ala-Asn-Val-Ala-Glu-Asn-Ala] (H-ANVAENA-OH) | no adverse effects |  |  |  |  | 
 | A-N-V-A-E-K (ANVAEK) [SEQ ID NO: 15] |  | 0.80 | 1.00 |  |  | 
 | L-I-A-D-A-K (LIADAK) [SEQ ID NO: 9] |  | 0.87 | 1.14 | 0.45 | 1.25 | 
 | L-I-A-E-A-A (LIAEAA) [SEQ ID NO: 11] |  | 1.00 | 1.17 | 1.16 | 1.85 | 
 | L-I-A-G-E-G (LIAGEG) [SEQ ID NO: 14] |  | 0.85 | 1.41 | 0.66 | 1.88 | 
 | L-I-A-G-G-E (LIAGGE) [SEQ ID NO: 13] |  | 1.33 | 1.45 | 1.10 | 1.90 | 
 | L-I-A-K-G-K (LIAKGK) [SEQ ID NO: 16] |  | 0.65 | 0.67 |  |  | 
 | L-I-A-N-A-K (LIANAK) [SEQ ID NO: 10] |  | 2.00 | 1.43 | 1.70 | 3.05 | 
 | L-I-A-Q-A-K (LIAQAK) [SEQ ID NO: 12] |  | 1.10 | 0.80 | 0.90 | 1.56 | 
 | LIAEAK [L2] |  |  |  |  |  | promoted the growth
 | LIAPEA [L1] |  |  |  |  |  | promoted the growth
